In patent US20160195530A1, “METHOD FOR ANALYSIS OF NKT CELL FUNCTION” (RIKEN, priority 2005, published 2016):

Columns and labels:
NKT cell line = test: Antigen-specific growth of NKT cell line cocultivated with heterologous DCs; assay type: cell-based, human; conditions: heterologous DCs in presence of antigen, 10 days, serially diluted NKT cell line mixed with NKT cell-removed PBMCs
Description: Mature DCs were stimulated for maturation, as well as pulsed using α-GalCer (100 ng/ml) for 48 hr in the 5th-7th days of the cultivation. 1×10^4 DCs pulsed with α-GalCer were added to the each well of 1×10^5 Mφ-depleted PBMCs in the presence of recombinant IL-2 (100 U/ml). 10-14 Days later, Va24^+ NKT cells were stained with FITC-labeled anti-Vα24 mAb, and selected using anti-FITC magnetic beads. Va24^+ NKT cells were maintained as a cell line in CM in the presence of 100 U/ml IL-2, and restimulated by PBMCs that had been irradiated in the presence of α-GalCer.
After serial dilution of the NKT cell line that was prepared by the method described in Example 4, the diluted solutions were mixed with NKT cell-removed PBMCs, cocultivated with heterologous DCs in the presence of an antigen (α-GalCel), and the growth rates were calculated 10 days later.

[1] = test system: NKT cells in peripheral blood; test: ELISPOT assay of IFN-γ-producing cells with α-GalCer-loaded mature DCs (autologous, allogeneic, heterologous); assay type: cell-based, human; conditions: α-GalCer 100 ng/ml
Excerpt: In order to study whether activation of NKT cells in peripheral blood varies by DCs of different derivation, NKT cell activation in an autologous, allogeneic or heterologous system was studied by an ELISPOT assay with IFN-γ productivity as an index.
Human DCs were obtained by purifying CD14% monocytes with magnetic beads (Miltenyi Biotec Inc. Auburn, Calif.) and cultivating them for 7 days in the presence of 500 U/ml recombinant human IL-4 and 1,000 U/ml recombinant human GM-CSF. α-GalCer (100 ng/ml) or the same amount of vehicle (DMSO, Sigma) was loaded onto DCs at the 5th day, given maturation stimuli (10 ng/ml IL-1β, 10 ng/ml TNFα, and 1 μg/ml PGE2) at the 6th day, and recovered at the 7th day.
Bone marrow precursor cells were grown into DCs induced from mouse bone marrow in 5% FCS-containing RPMI-1640 using mouse GM-CSF. At the 6th day, α-GalCer (100 ng/ml) was added to immature bone marrow DCs, and cultivation was performed for 40 hr. For maturation of DCs, 100 ng/ml LPS was added at the 7th day, and cultivation was performed for 16 hr. Matured α-GalCer-pulsed DCs were recovered at the 8th day.
For detection of IFN-γ-secreting cells, 96-well filtration plates (Millipore, Bedford, Mass.) were coated with mouse anti-human IFN-γ (10 μg/ml, Mabtech, Sweden). PBMCs (1×10^6) were incubated in RPMI containing 5% human AB serum or 10% calf serum (complete medium or CM; GIBCO) in either presence or absence of α-GalCer (100 ng/ml). PMA (10 μg/ml) and ionomycin were used as positive controls. […] Spot-forming cells (SFC) were quantified with a microscope. When the reactivity was not less than 10 SFC/well and not less than twice the background (without αGalCer), the assay was scored as positive. In order to compare naive NKT cell activation ability of different APCs (autologous, allogeneic and heterologous DC) in cultures, Mφ-depleted cells (1×10^6/well) were cultivated with […] α-GalCer or vehicle-loaded APCs (1×10^5/well) in CM for 16 hr. α-GalCer-dependent IFN-γ-producing cells were measured by an ELISPOT assay.

[2] = test system: NKT cell contained in peripheral blood of a healthy subject; test: Cocultivation of Mφ-depleted PBMC with α-GalCer-pulsed mature mouse DC, flow cytometry and intracellular staining; assay type: cell-based, human; conditions: healthy subjects; α-GalCer-pulsed mature mouse DCs, IL-2 100 U/ml, 9 days
Description: At first, mouse DCs were induced from mouse bone marrow cells. Mouse bone marrow cells were cultivated in 5% FCS-containing RPMI-1640 in the presence of mouse GM-CSF under 5% CO2 at 37° C. for 5 days.
Subsequently, immature mouse DCs were maturated. To the culture obtained as mentioned above (containing immature mouse DCs), α-GalCer (100 ng/ml) was added at the 6th day, and the culture was cultivated for 40 hr. For an acieration of the maturation, 100 ng/ml LPS was added at the 7th day, and the culture was cultivated for 16 hr. Thus obtained α-GalCer-pulsed mature mouse DCs were recovered at the 8th day.
PBMCs were obtained by blood drawing from healthy subjects, and Mφ-depleted PBMCs were obtained by removing macrophages (Mφ) using an anti-CD14 antibody (simultaneously using a CD11c antibody as necessary) and magnetic beads.
α-GalCer-pulsed mature mouse DCs (5×10^4 cells/ml) obtained by the above-mentioned (1) and Mφ-depleted PBMCs (5×10^5 cells/ml) obtained by the above-mentioned (2) were cultivated in 10% FCS-containing RPMI-1640 in the presence of recombinant human IL-2 (100 U/ml) under 5% CO2 at 37° C. for 9 days.
After cultivation in accordance with the protocol of the above-mentioned (1)-(3), the number of NKT cells and the frequency of NKT cells having an cytokine production ability were measured by flow cytometry and intracellular staining. […]

human NKT cells = test: IFN-γ ELISA after cocultivation of isolated human NKT cells with α-GalCer-pulsed autologous or heterologous DCs; assay type: cell-based; conditions: α-GalCer-pulsed heterologous (mouse) DCs versus autologous DCs
Description: In order to clarify that a human NKT cell can be specifically activated by a heterologous DC, human NKT cells were isolated, cocultivated with α-GalCer-pulsed autologous or heterologous DCs, after which the culture supernatants were collected, and cytokine production was measured by the ELISA method.
After growth of the NKT cell with α-GalCer and IL-2, the cells were sorted using FACS Vantage with anti-invariant NKT antibodies, and cocultivated with α-GalCer-pulsed heterologous or autologous DCs, after which IFN-γ was quantified by the ELISA method.

Question: How did the “antigen-specific growth of human NKT cells” value (NKT cell line) turn out when `CCCCCCCCCCCCCCCCCCCCCCCCCC(=O)N[C@@H](CO[C@H]1O[C@H](CO)[C@H](O)[C@H](O)[C@H]1O)[C@H](O)[C@H](O)CCCCCCCCCCCCCC` [α-GalCer, 25,35,4R-1-0(α-galactopyranosyl)-2(N-hexacosanoylamino)-1,3,4-octadecanetriol] was run?
Answer: antigen-specifically grown by heterologous DCs

Question: What about the “α-GalCer-dependent NKT cell activation (IFN-γ productivity, ELISPOT)” value (“α-GalCer-dependent NKT cell activation” below) ([1]; high frequency NKT cell-containing group (% NKT>0.05%), autologous and heterologous DCs) of the same molecule?
Answer: activation of NKT cell was confirmed

Question: And the “α-GalCer-dependent NKT cell activation” value ([1]; low frequency NKT cell-containing group (% NKT<0.01%))?
Answer: NKT cell activation was not confirmed

Question: And the “α-GalCer-dependent NKT cell activation” value ([1]; middle frequency NKT cell-containing group (0.01%<% NKT<0.05%))?
Answer: activation of NKT cell was confirmed in an α-GalCer dependent manner, but the production amount was found to be decreased

Question: What about the “cytokine production (frequency of NKT cells having cytokine production ability, IFN-γ)” value [2] of the same molecule?
Answer: confirmed

Question: What about the “α-GalCer-dependent growth of human NKT cells (number of NKT cells)” value [2] of the same molecule?
Answer: confirmed

Question: What about the “IFN-γ production (ELISA, culture supernatant)” value (human NKT cells) of the same molecule?
Answer: IFN-γ production was confirmed in the heterologous system, though it was lower than in the autologous system
